target: T1, c-kit kinase enzyme (Homo sapiens, UniProt P10721); test: C-kit Homogeneous Time Resolved Fluorescent (HTRF) kinase assay; assay type: biochemical; settings: read-out: average IC50 value, inhibition of the c-kit kinase enzyme
T1 construct: c-kit (6.25 μM) (catalytic domain, N-terminal GST tagged, unphosphorylated); GST (N)
Protocol: C-kit-Homogeneous Time Resolved Fluorescent (HTRF) Kinase Assay:
The purpose of this assay is to measure the inhibition of c-kit enzyme activity (autophosphorylation and phosphorylation of substrate) by small molecule test compounds. The c-kit HTRF assay begins with c-kit-catalyzed phosphorylation of biotinylated peptide Her-2 (N-GGMEDIYFEFMGGKKK-C) in the presence of ATP. The c-kit enzyme reaction is comprised of 1 μL of compound in 100% DMSO, 15 μL of 2× substrate mix (50 μM ATP and 2 μM biotinylated Her-2) and 15 μL of 2× c-kit (6.25 μM) (catalytic domain, N-terminal GST tagged, unphosphorylated) in 4 mM DTT all diluted in enzyme buffer (25 mM HEPES pH 7.5, 12.5 mM NaCl, 50 mM MgCl, 0.05% BSA). The reaction incubates for 90 min at RT. 160 Microliters of detection mixture containing 0.47 μg/mL steptavidin allophycocyanin and 29.7 pM europylated anti-phosphotyrosine Ab (PT66, Perkin Elmer) in HTRF buffer (100 mM Hepes pH 7.5, 100 mM NaCl, 0.1% BSA, 0.05% Tween 20) is then added to stop the reaction, by diluting out the enzyme as well as to enable quantitation of phosphorylated Her-2. After 3 h at RT, the detection reaction is read in a Packard Discovery™ (model BD1000) plate reader. The wells are excited with coherent […] light and the ratio of delayed ([…] post excitation) emissions at […] (native europium fluorescence) and 665 nm (europium fluorescence transferred to allophycocyanin—an index of substrate phosphorylation) is determined. The proportion of substrate phosphorylated in the kinase reaction in the presence of compound compared with that phosphorylated in the presence of DMSO vehicle alone (HI control) is calculated using the formula: % control (POC)=(cpd−average LO)/(average HI—average LO)*100. Data (consisting of POC and inhibitor concentration in μM) is fitted to a 4-parameter equation (y=A+((B−A)/(1+((x/C)^D))), where A is the minimum y (POC) value, B is the maximum y (POC), C is the x (compound concentration) at the point of inflection and D is the slope factor) using a Levenburg-Marquardt non-linear regression algorithm.

T1 sequence (P10721 589-937 limits assumed): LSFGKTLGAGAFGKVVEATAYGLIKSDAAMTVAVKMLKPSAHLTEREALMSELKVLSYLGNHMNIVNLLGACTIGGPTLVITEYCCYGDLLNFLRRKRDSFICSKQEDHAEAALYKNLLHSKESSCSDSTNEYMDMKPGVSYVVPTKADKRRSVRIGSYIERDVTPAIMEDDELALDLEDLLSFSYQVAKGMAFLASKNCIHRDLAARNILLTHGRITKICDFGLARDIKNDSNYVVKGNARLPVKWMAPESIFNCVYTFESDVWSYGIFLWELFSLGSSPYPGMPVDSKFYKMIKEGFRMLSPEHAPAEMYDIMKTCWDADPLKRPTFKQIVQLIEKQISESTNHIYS

SMILES	IC50
O=C(Nc1cncnc1)c1c(Cl)ccc2c(Nc3ccc(F)c(C(F)(F)F)c3)noc12 [Example 10, 6-chloro-3-(4-fluoro-3-(trifluoromethyl)phenylamino)-N-(pyrimidin-5-yl)benzo[d]isoxazole-7-carboxamide]	≤ 20 nM
O=C(Nc1cncnc1)c1c(Cl)ccc2c(Nc3cc(F)cc(C(F)(F)F)c3)noc12 [Example 12, 6-chloro-3-(3-fluoro-5-(trifluoromethyl)phenylamino)-N-(pyrimidin-5-yl)benzo[d]isoxazole-7-carboxamide]	≤ 20 nM
O=C(Nc1cncnc1)c1c(Cl)ccc2c(Nc3ccc(OC(F)(F)F)cc3)noc12 [Example 15, 6-chloro-N-(pyrimidin-5-yl)-3-(4-(trifluoromethoxy)phenylamino)benzo[d]isoxazole-7-carboxamide]	≤ 20 nM
CCCc1ccc(Nc2noc3c(C(=O)Nc4cncnc4)c(Cl)ccc23)cc1 [Example 17, 6-chloro-3-(4-propylphenylamino)-N-(pyrimidin-5-yl)benzo[d]isoxazole-7-carboxamide]	≤ 20 nM

test system: SCF or GM-CSF-stimulated UT-7 cells; test: SCF and GM-CSF stimulated UT7 proliferation/survival assay; assay type: cell-based; settings: Homo sapiens, UT7, 72 h, 3 days, ATP readout
Excerpt: SCF and GM-CSF Stimulated UT7 Proliferation/Survival Assay:
The purpose of this assay is to test the general anti-proliferative/cytotoxic effect of small molecule compounds on SCF or GM-CSF-stimulated UT-7 cells. Preventing SCF stimulated proliferation/survival is consistent with an on-mechanism effect whereas inhibition of GM-CSF driven proliferation/survival is indicative of off-target effects. UT-7 is a factor dependent human megakaryoblastic leukemia cell line that can be grown in either IL-3, GM-CSF, EPO or SCF (these cells have been confirmed to carry wild type c-kit receptor). Cells are maintained in growth media (IMDM, 10% HI-FBS, 1×PGS, 1 ng/mL GM-CSF). To measure SCF or GM-CSF-induced proliferation, cells are washed and re-suspended to 5e4c/mL in assay media (RPMI 1640/4% HI-FBS, 1×PGS) and plated at 50 uL/well for 2500c/well. Small molecule compounds are first diluted in 100% DMSO, then diluted 1:4 in RT assay media. 5 Microliters of 11×SCF (55 ng/mL) or 11×GM-CSF (11 ng/mL) in assay media plus 1 μL of diluted drug are added to the cell plates. The treated cells are incubated in a 37° C. humidified incubator with 5% CO2 for 3 days. The amount of ATP is then measured as a surrogate marker for cell viability. This is accomplished by adding 50 μL of Perkin Elmer ATP 1 step reagent (as per instructed in the reagent manual, Cat. No. 6016739), incubating at RT for 15 min and reading the luminescence with a Perkin Elmer Topcount NXT™HTS (model c384) plate reader. The amount of SCF or GM-CSF stimulated viable cells in the presence of compound compared with in the presence of vehicle alone (HI control) is calculated using the formula: % control (POC)=(cpd−average LO)/(average HI−average LO)*100. Data (consisting of POC and inhibitor concentration in μM) is fitted to a 4-parameter equation (y=A+((B−A)/(1+((x/C)^D))), where A is the minimum y (POC) value, B is the maximum y (POC), C is the x (cpd concentration) at the point of inflection and D is the slope factor) using a Levenburg-Marquardt non-linear regression algorithm.

SMILES	IC50
O=C(Nc1cncnc1)c1c(Cl)ccc2c(Nc3ccc(C(F)(F)F)cc3)noc12 [Example 5, 6-chloro-N-(pyrimidin-5-yl)-3-(4-(trifluoromethyl)phenylamino)benzo[d]isoxazole-7-carboxamide]	≤ 20 nM
CCCc1ccc(Nc2noc3c(C(=O)Nc4cncnc4)c(Cl)ccc23)cc1 [Example 17, 6-chloro-3-(4-propylphenylamino)-N-(pyrimidin-5-yl)benzo[d]isoxazole-7-carboxamide]	≤ 20 nM
CCCCc1ccc(Nc2noc3c(C(=O)Nc4cncnc4)c(Cl)ccc23)cc1 [Example 18, 3-(4-butylphenylamino)-6-chloro-N-(pyrimidin-5-yl)benzo[d]isoxazole-7-carboxamide]	≤ 20 nM

Reference: US7872128B2, “Benzisoxazole and isoxazolo-pyridine compounds and method of use” (Amgen Inc., priority 2006, dated 2011)
